In BindingDB's records for doi:10.1021/acs.jnatprod.0c01036 (University of Illinois At Chicago, 2021):

Biological target: Kappa-type opioid receptor (Homo sapiens, UniProt P41145)
Experiment: Displacement of [3H]-U69593 from human kappa opioid receptor expressed in U2OS cells by radioligand binding assay

Sequence of Kappa-type opioid receptor (P41145 whole entry): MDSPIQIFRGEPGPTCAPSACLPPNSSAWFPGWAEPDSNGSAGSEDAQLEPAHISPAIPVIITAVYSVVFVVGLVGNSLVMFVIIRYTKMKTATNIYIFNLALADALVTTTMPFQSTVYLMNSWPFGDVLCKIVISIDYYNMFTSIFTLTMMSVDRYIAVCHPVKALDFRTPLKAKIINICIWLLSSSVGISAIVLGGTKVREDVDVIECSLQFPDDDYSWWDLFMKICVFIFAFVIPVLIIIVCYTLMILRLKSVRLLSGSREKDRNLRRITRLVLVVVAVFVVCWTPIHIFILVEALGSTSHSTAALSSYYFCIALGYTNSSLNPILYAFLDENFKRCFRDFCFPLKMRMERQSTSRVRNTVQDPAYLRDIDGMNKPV

With C/C=C1/CN2CC[C@@]34C(=Nc5ccccc53)C(C(=O)OC)[C@H]1C[C@H]24 (stereo partly specified) the Ki was 89 nM.
